Source: patent US20240197702A1, “ANTISEPTIC-ANTIBIOTIC GUMBOS EFFECTIVE AGAINST GRAM-NEGATIVE PATHOGENS” (priority 2020, published 2024)
Where a name gives a salt, the structure may show the parent alone.

Experiments:
[1] = test system: N. gonorrhoeae clinical isolates; experiment: Kirby-Bauer disc diffusion against N. gonorrhoeae clinical isolates; type: cell-based, Neisseria gonorrhoeae; conditions: three clinical isolates, 20-24 h
Description: (§1) Antimicrobial susceptibility testing: Kirby-Bauer disc diffusion susceptibility tests were used to determine zones of inhibition (ZOIs) for N. gonorrhoeae (ATCC 49226) and three clinical isolates obtained from Louisiana State University Health Sciences Center New Orleans HIV Outpatient Clinic. Kirby-Bauer disc diffusion is one of the CDC's preferred methods of testing the susceptibility of N. gonorrhoeae. Testing was performed according to CLSI recommended procedures. In this susceptibility test, 6 mm diameter blank paper discs were impregnated with known quantities of antimicrobial drug followed by evaporation of solvent; however, ceftriaxone, azithromycin and doxycycline antimicrobial susceptibility discs were purchased from Thermo Fisher Scientific. Impregnated discs were placed onto prepared nutrient agar plates that were inoculated with N. gonorrhoeae to give a confluent lawn of growth. Suspensions of these various strains were prepared in accordance with a 1.0 McFarland standard. Inoculated agar plates were incubated for 20-24 h at 37° C. in a 5% CO2 atmosphere.
(§2) Blank discs were loaded with 50 nmol of GUMBOS, respective constituent compounds and equivalent stoichiometric unreacted mixtures of octenidine and carbenicillin that are equimolar to the purchased ceftriaxone discs (Oxoid™, Thermo Fisher). After 20-24 h incubation, diameters of ZOIs were measured using a ruler. […] Antibacterial activity was improved for octenidine when chloride ions were exchanged for the antibiotic. […] This effect was not seen, however, for an unreacted mixture of the two drugs for either N. gonorrhoeae (ATCC 49226) or clinical isolates. The ZOIs of octenidine/carbenicillin were also larger than or equal to azithromycin and doxycycline ZOIs for N. gonorrhoeae (ATCC 49226). […] This is significant as resistance rates for azithromycin have increased worldwide. Among 57 countries reporting on azithromycin susceptibility, 28 (49%) reported>5% resistance. […] Ceftriaxone produced large ZOIs as the clinical population still remains susceptible to it in the USA (only 0.2% of isolates had elevated resistance to ceftriaxone in 2017).

[2] = test system: N. gonorrhoeae ATCC 49226; experiment: Kirby-Bauer disc diffusion against N. gonorrhoeae ATCC 49226; type: cell-based, Neisseria gonorrhoeae; conditions: for Zone size, mm (±SD): ATCC 49226, disc diffusion, 20-24 h
Description: as §1, §2

HeLa cells = experiment: MTT cytotoxicity assay of octenidine/carbenicillin GUMBOS; type: cell-based; conditions: HeLa; for Relative toxicity to cervical cells (in words): after 15 min of incubation
Description: (§3) Cytotoxicity assay: To determine cell viability, a colorimetric MTT dye assay (Promega Corp., Madison, WI, USA) was used, employing the manufacturer's instructions, as an indicator of cytotoxicity of GUMBOS towards healthy (HeLa) cells. Hela cells (ATCC CCL-2) grown in DMEM-reduced serum supplemented with 10% FBS were plated at a density of 1% 10^5 cells/mL (10^4 cells/well) in 96-well plates. Concentrations of therapeutic agents up to 500 μM (1% MeOH or DMSO) were doubly diluted in cell culture media and transferred to seeded cells. Cells were incubated for 15 min and 60 min at 37° C. in a 5% CO2 atmosphere. Cells treated with medium alone served as a negative control. At the end of the incubation period, 15 μL of MTT was added to each well and incubation continued for another hour. Absorbance was measured at 570 nm in a microplate spectrophotometer. All experiments were performed in quadruplicate. Cell viability as a percentage was determined as the ratio between treated cells and untreated (control) cells (taken as 100%).

[3] = Parallel Artificial Membrane Permeability Assay (PAMPA); type: in vitro ADME
Description: Predictive intestinal permeability: PAMPA was employed as an in vitro model of passive, transcellular permeation. In this technique, a 96-well microtiter plate is used as a donor plate and a membrane/acceptor compartment coated with structured tri-layers of phospholipids is placed on top; this configuration is referred to as ‘sandwiched’. Known concentrations of octenidine/carbenicillin (100 μM in 1×PBS, 0.25% DMSO) were added to the donor plate while only buffer was placed in the acceptor plate. The assay was incubated for 5 h at room temperature and the acceptor plate was measured using a UV/Vis spectroscopy plate reader (Eppendorf PlateReader AF2200). Permeability coefficients (Pe) were calculated based on initial concentration in donor well (C0), concentration in donor well at 5 h (CD), concentration in acceptor well at 5 h (CA), volumes of donor (VD) and acceptor wells (VA), well filter area (A, 0.3 cm^2) and incubation time (t, 18000 s), as calculated using the relationship in Equation 1.

[4] = according to Hansch et al (1995); cited from earlier work
[5] = MTT cytotoxicity assay of ceftriaxone-based GUMBOS; type: cell-based; conditions: human, HeLa cells, read-out: Acute cytotoxicity (IC50)
Description: Cytotoxicity Assay of GUMBOS: Cytotoxicity of GUMBOS, unreacted mixtures, and antiseptics towards healthy cells were evaluated using the MTT assay, a colorimetric dye assay, according to manufacturer's instructions. […] Stock solutions of antimicrobial agents in cell medium (1% MeOH) were diluted to a known working concentration, doubly diluted, and transferred to seeded cells. […] Cells treated with only DMEM were used as a negative control. After incubation, 15 μL of MTT were added to each well and cells were further incubated for an hour. Sodium dodecyl sulfate dimethylformamide solution was added after this additional incubation time in order to dissolve the purple formazan crystals. Cell viability was quantified at 570 nm using a microplate spectrophotometer (Eppendorf PlateReader AF2200, Hauppauge, NY). Cell viability as a percentage was determined as the ratio between treated cells and untreated (control) cells taken as 100%.

[6] = test system: N. gonorrhoeae ATCC 49226; experiment: MIC by micro-broth dilution against N. gonorrhoeae ATCC 49226; type: cell-based, Neisseria gonorrhoeae; conditions: Neisseria gonorrhoeae, ATCC49226; ATCC 49226, micro-broth dilution, 20-24 hours
Description: (§4) Minimum Inhibitory Concentrations of GUMBOS against N. gonorrhoeae: Clinical isolates of N. gonorrhoeae and N. gonorrhoeae ATCC 49226 were obtained from Louisiana State University Health Sciences Center New Orleans HIV Outpatient Clinic. Minimum inhibitory concentrations (MICs) of GUMBOS, constituent parent drugs, azithromycin, and unreacted mixtures were determined using micro-broth dilution in 96-well plates. […] Stock solutions were diluted to a known working concentration and 100 μL were added to the first row of the plate. For susceptibility testing of N. gonorrhoeae, media was prepared according to methods reported by Wade and […]. Euro. Microbiol. Soc. Microbiol. […] This liquid medium allowed dense growth of N. gonorrhoeae for use in broth dilution tests. Protein-free liquid media (100 μL) were added to each well and two-fold dilutions were performed. The antibiotic containing wells were inoculated with an equal volume of bacterial inoculum matching a 0.5 McFarland standard. […] The lowest concentration of antibiotic that prevents growth is the MIC.

[7] = MTT cytotoxicity assay of octenidine/carbenicillin GUMBOS; type: cell-based; conditions: human
Description: as §3

[8] = test system: clinical isolates of N. gonorrhoeae; experiment: MIC by micro-broth dilution against N. gonorrhoeae clinical isolates; type: cell-based, Neisseria gonorrhoeae; conditions: Neisseria gonorrhoeae
Description: as §4

Row | Compound | Zone size, mm (±SD) [1] [mm] | Zone size, mm (±SD) [2] [mm] | Combination effect on antibacterial activity ([2]; N. gonorrhoeae (ATCC 49226) and clinical isolates, disc diffusion) | Antibacterial activity relative to azithromycin ([2]; disc diffusion ZOIs) | Cytotoxicity towards cervical cells (in words) (HeLa cells) | Relative toxicity to cervical cells (in words) (HeLa cells) | Permeability class [3] | Mean effective Pe (permeability coefficient) ([3]; 100 μM in 1×PBS, 0.25% DMSO, 5 h, room temperature) | Log P [4] | IC50 at 15 min ([5]; 15 min) [µM] | IC50 at 60 min ([5]; 60 min) [µM] | MIC [6] [µM] | IC50 at 15 min [7] [µg/mL] | IC50 at 60 min [7] [µg/mL] | MIC [8] [µM]
1 | CC1(C)S[C@@H]2[C@H](NC(=O)C(C(=O)[O-])c3ccccc3)C(=O)N2[C@H]1C(=O)[O-].CCCCCCCCNc1cc[n+](CCCCCCCCCC[n+]2ccc(NCCCCCCCC)cc2)cc1 [[OCT][CAR], octenidine/carbenicillin] | 37 ± 4 | 40 ± 0.6 | additive effect | bioequivalent to azithromycin | non-toxic towards cervical cells | lower toxicity than the stoichiometric, unreacted mixture | high permeability (Pe values that are greater than 1.5% 10 cm/s are defined as high permeability) | 3.78×10^−6 (±0.85) cm/s | – | – | – | – | – | – | –
2 | [H]/N=C(\N/C(=N/[H])NCCCCCCNC(=N)NC(=N)Nc1ccc(Cl)cc1)Nc1ccc(Cl)cc1 [chlorhexidine] | – | – | – | – | – | – | – | – | 0.08 | – | – | – | – | – | –
3 | CCCCCCCCN=c1ccn(CCCCCCCCCCn2ccc(=NCCCCCCCC)cc2)cc1 [Octenidine dihydrochloride, octenidine dihydrochloride] | 9 ± 0.3 | 9 ± 1 | – | – | – | most toxic | – | – | – | 55 ± 1.29 | 25.9 ± 1.17 | 3.1 | 37.4 ± 2.8 | 16.1 ± 0.7 | 4.7 ± 1.8
